# Article PMC4604124, “In Vitro Characterization of the Pharmacological Properties of the Anti-Cancer Chelator, Bp4eT, and Its Phase I Metabolites” (PLoS ONE, 2015)
# Several values for one entry are separate records, joined by “and”; a condition that tells them apart may be missing. Equal values may be shown once.
# How the values were obtained:
# MCF-7 cells [1] = experiment: Mitochondrial morphology, MitoTracker Green FM; type: cell-based, human; details: 10 or 100 nM, 72 h
# Protocol: (§1) Markers used to assess autophagy/apoptosis/necrosis in MCF-7 cells and changes of lysosomal and mitochondrial morphology were observed using an Eclipse Ti inverted epifluorescence microscope (Nikon, Tokyo, Japan), that was equipped with a cooled digital camera Zyla 5.5 sCMOS (Andor Technology, Belfast, UK), and NIS-Elements C 4.1 software (Laboratory Imaging, Prague, Czech Republic). The MCF-7 cells were seeded in 6-well plates with cover slips on the bottom at a density of 150,000 cells/well and incubated as described above in the presence or absence of 10 or 100 nM Bp4eT.
# To determine the effect of Bp4eT on mitochondrial morphology, the cells were incubated with MitoTracker® Green FM (0.25 μM; λex = 490 nm; λem = 516 nm; Molecular Probes) for 10 min/37°C. The cells were then washed with fresh medium and the images captured using the microscope described above.
# [2] = system: cancer cells (HL-60, MCF-7, HCT116, A549) and non-cancerous cells (H9c2, 3T3); experiment: MTT cytotoxicity assay, summary over the cell line panel; type: cell-based
# Protocol: (§2) For cytotoxicity experiments, cancer cells were seeded at a density of 5,000 (MCF-7), 10,000 (HL-60) or 2,000 cells/well (HCT116 and A549) in 96-well plates (TPP) for 24 h/37°C prior to the addition of examined agents. The non-cancerous cells, 3T3 and H9c2 cells, were cultured for 24 h/37°C in 96-well plates at a density of 10,000 cells/well, the medium was then changed to serum- and pyruvate-free DMEM (Sigma-Aldrich) and incubated with the cells for another 24 h/37°C. The cytotoxic effects of Bp4eT and its metabolites were studied at different concentrations after a 72 h/37°C incubation. In order to aid the dissolution of the lipophilic ligands, 0.1% dimethyl sulfoxide (v/v) (DMSO; Sigma-Aldrich) was present in the culture medium of all groups. At this concentration, DMSO had no effect on cellular proliferation or viability.
# (§3) The viability of cells were determined using an MTT assay (Sigma-Aldrich) according to previously established methods. The optical density of soluble MTT was measured at λ = 570 nm, subtracting the λ = 690 nm background using a Tecan Infinite 200M plate reader (Tecan Group, Männedorf, Switzerland). The viability or proliferation of experimental groups was expressed as a percentage of the untreated controls (100%).
# (§4) SigmaStat for Windows 3.5 (Systat Software, San Jose, CA, USA) statistical software package was utilized to analyze results. The data are expressed as the mean ± SD of a given number of experiments. Statistical significance was determined using a one-way ANOVA with a Bonferroni post-hoc test or Student’s t-test. The results were considered to be statistically significant when p < 0.05. The IC50 values were calculated using CalcuSyn 2.0 software (Biosoft, Cambridge, UK). Cell cycle analysis was evaluated using MultiCycle AV Software (Phoenix Flow Systems, San Diego, CA, USA).
# [3] = system: MCF-7 cells prelabeled with 59Fe2-transferrin; experiment: Mobilization (efflux) of cellular 59Fe; type: cell-based, human; set-up: Efflux 59Fe / Efflux 59Fe, Ave: unit not given here
# Description: Human transferrin (Sigma) was labeled with ^56Fe or ^59Fe (PerkinElmer, Massachusetts, USA) to produce ^56Fe2-transferrin or ^59Fe2-transferrin (^59Fe2-Tf), respectively, with a final specific activity of 500 pCi/pmol Fe, as previously described. Unbound ^59Fe was removed by exhaustive vacuum dialysis against a large excess of 0.15 M NaCl buffered to pH 7.4 with 1.4% NaHCO3 by standard methods.
# To examine the ability of studied compounds to mobilize cellular ^59Fe from MCF-7 cells, iron efflux experiments were performed using established techniques. In brief, after pre-labeling confluent MCF-7 cells on 6-well plates with 0.75 μM ^59Fe2-Tf for 3 h/37°C, the cells were washed four times with ice-cold PBS and then subsequently incubated with 25 μM of Bp4eT or its metabolites for 3 h/37°C. The overlying medium containing released ^59Fe was then decanted from the cells. Radioactivity was measured in both the cells and the supernatant using a γ-scintillation counter (Wallac Wizard 3, Turku, Finland).
# MCF-7 cells [4] = experiment: Epifluorescence microscopy, triple staining MDC / annexin V-FITC / propidium iodide; type: cell-based, human; details: Bp4eT 10 or 100 nM 72 h, rapamycin 1 nM 30 min
# Protocol: as §1
# To assess the mechanism of cellular death after incubation with Bp4eT, triple staining with monodansyl cadaverine (MDC; 50 μM; λex = 390 nm; λem = 455 nm; Sigma-Aldrich), annexin V-FITC (5 μL/mL; λex = 495 nm; λem = 519 nm; Invitrogen, Carlsbad, CA, USA), and propidium iodide (5 μg/mL; λex = 560 nm; λem = 630 nm) was used. MDC is a marker of autophagosomes and lysosomes and results in blue fluorescence. As a positive control for autophagy, MCF-7 cells were incubated with 1 nM rapamycin (Sigma-Aldrich) for 30 min/37°C, which is an established inducer of autophagy. Annexin V has high affinity to phosphatidylserine, which is translocated to the surface of both early- and late-stage apoptotic cells. […]
# [5] = system: HCT116 human colorectal carcinoma cells; experiment: MTT cytotoxicity assay, HCT116 cells; type: cell-based; details: for IC50: MTT
# Protocol: as §2, §3, §4
smiles,measurement,setting,value
"CCNC(=S)NN=C(c1ccccc1)c1ccccn1 [Bp4eT, 2-benzoylpyridine 4-ethyl-3-thiosemicarbazone]",Mitochondrial morphology,MCF-7 cells [1],more swollen and enlarged
same,IC50,"[2]; HL-60, MCF-7 and HCT116 cells, 72 h, read-out: IC50, range over cell lines",3 to 15 nM
same,"Therapeutic indices, range","[2]; towards HL-60, MCF-7 and HCT116 cancer cells",34.9–436.3
same,"Release of cellular 59Fe, % of total cellular 59Fe","[3]; 25 μM, 3 h/37°C, MCF-7",46.4%
same,"Efflux 59Fe, Ave",[3]; average of all replicates,46.4439
same,Efflux 59Fe,[3]; single replicate (three per date),48.2798 and 45.5975 and 45.2039 and 47.6936 and 45.8687 and 45.6484 and 48.9726 and 45.6298 and 45.1012
same,"Staining for autophagy/apoptosis/necrosis (MDC, annexin V-FITC, propidium iodide)",MCF-7 cells [4],dose-dependent increase in the number of green annexin V-stained cell membranes or bodies
same,"Therapeutic index, IC50 non-cancerous cells / IC50 neoplastic cells",[5]; 3T3/HCT116,163.6
same,"Therapeutic index, IC50 non-cancerous cells / IC50 neoplastic cells",[5]; H9c2/HCT116,65.5
same,"MTT, relative to control (0 = 100)","[5]; HCT116, 2 000 b/j, 0.1 nM, průměr (mean)",92.91
same,"MTT, relative to control (0 = 100)","[5]; HCT116, 2 000 b/j, 0.1 nM, single experiment (date)",94.5188 and 92.721 and 92.454 and 82.0932 and 102.751
same,"MTT, relative to control (0 = 100)","[5]; HCT116, 2 000 b/j, 0.3 nM, průměr (mean)",88.66
same,"MTT, relative to control (0 = 100)","[5]; HCT116, 2 000 b/j, 0.3 nM, single experiment (date)",92.7269 and 86.3547 and 90.8174 and 78.0265 and 95.3944
same,"MTT, relative to control (0 = 100)","[5]; HCT116, 2 000 b/j, 1 nM, průměr (mean)",85.74
same,"MTT, relative to control (0 = 100)","[5]; HCT116, 2 000 b/j, 1 nM, single experiment (date)",90.3279 and 80.727 and 89.5958 and 78.1202 and 89.9198
same,"MTT, relative to control (0 = 100)","[5]; HCT116, 2 000 b/j, 3 nM, průměr (mean)",82.64
same,"MTT, relative to control (0 = 100)","[5]; HCT116, 2 000 b/j, 3 nM, single experiment (date)",85.5357 and 81.1307 and 88.4648 and 76.4907 and 81.5651
same,"MTT, relative to control (0 = 100)","[5]; HCT116, 2 000 b/j, 10 nM, průměr (mean)",43.25
same,"MTT, relative to control (0 = 100)","[5]; HCT116, 2 000 b/j, 10 nM, single experiment (date)",46.7731 and 45.9842 and 47.2591 and 32.9751
same,"MTT, relative to control (0 = 100)","[5]; HCT116, 2 000 b/j, 30 nM, průměr (mean)",5.63
same,"MTT, relative to control (0 = 100)","[5]; HCT116, 2 000 b/j, 100 nM, průměr (mean)",2.50
same,IC50,"[5]; HCT116, 2 000 b/j, single experiment (date)",7.8 nM and 8.77 nM and 5.93 nM
same,IC50,"[5]; Homo sapiens, HCT-116, 72 h, HCT116, 72 h/37°C, mean ± SD, n ≥ 4",8 ± 1 nM
same,IC50,"[5]; Homo sapiens, HCT-116, HCT116, 2 000 b/j, průměr (mean)",7.6 nM
same,IC50,"[5]; Homo sapiens, HCT-116, HCT116, 2 000 b/j, single experiment (date)",7.89 nM
